How the values were obtained:
[1] = Particle size distribution (PSD) by laser diffraction, wet dispersion; format: physicochemical; details: crystalline form 1; average of at least five crystallization batches, each measured in triplicate
Source text: Particle size distributions are defined herein as D10, D50 and D90. D10, D50 and D90 represent the particle diameter corresponding to the respective percentage in volume (i.e. 10%, 50%, 90%) of a given sample which is below the indicated diameter. For example, a D50 from about 70 μm to about 150 μm means that 50% of the volume of a given sample has a diameter which is equal or below a diameter that is in the range between about 70 μm and about 150 μm. Particle size distributions may be determined using standard procedures such as laser diffraction.
Particle Size Distribution (PSD)
PSD measurements were performed by laser-diffraction using a wet dispersion method. Data were collected on a Mastersizer 2000 (Malvern) equipped with a dispersion unit Hydro 2000S in the size range from 0.020 μm to 2000.000 μm. Typically, about 100 mg sample in about 20 ml Tegiloxan 3 (silicon oil, CAS Nr. 9016-00-6) is dispersed in an ultrasonic bad for about 30 s and subsequently added to a prefilled with Tegiloxan 3 dispersion unit until obscuration of about 10% to about 30% is achieved. After a circulation time of 5 min, a sample measurement is performed. Reported particle size values (D10, D50 and D90) represent an average value of 3 measurements.
Particle size measurements of COMPOUND in crystalline form 1 as obtained in Examples 1, 2 and Reference Example 3 are performed using the method described herein. Each data point in Table 3 represents an average value obtained from at least five separate crystallization batches, each measured in triplicate.

[2] = system: plasma levels of metabolic substrates; experiment: Phase Ib study in patients suffering from Fabry disease; format: in vivo; details: on top of enzyme replacement therapy
[3] = Gravimetric vapour sorption (GVS) analysis, hygroscopicity; format: physicochemical; details: crystalline form 1; 25° C.; mass change between 40% and 80% RH in first adsorption scan; European Pharmacopeia 8.0 classification
Procedure: Gravimetric Vapour Sorption (GVS) Analysis
Measurements were performed on a multi sample instrument SPS-100n (Projekt Messtechnik, Ulm, Germany) operated in stepping mode at 25° C. The sample was allowed to equilibrate at 40% RH before starting a pre-defined humidity program (40-0-95-0-95-40% RH, steps of 5% ΔRH and with a maximal equilibration time of 24 hours per step were applied. About 20 to 30 mg of each sample was used. The hygroscopic classification is done according to the European Pharmacopeia 8.0, e.g., slightly hygroscopic: increase in mass is less than 2% and equal to or greater than 0.2% mass/mass; hygroscopic: increase in mass is less than 15% and equal to or greater than 2% mass/mass. The mass change between 40% relative humidity and 80% relative humidity in the first adsorption scan is considered.

[4] = Thermogravimetric analysis (TGA); format: physicochemical; details: crystalline form 1; in the range 31.5 to 140° C.
Procedure: Thermogravimetric Analysis (TGA)
TGA data were collected on a Mettler Toledo STARe System (TGA851e module and STAR software version 9.20) equipped with a 34-position auto-sampler. Typically, about 5 mg of a sample, in an automatically pierced aluminium pan, was heated at 10° C. min^−1, unless stated otherwise, from 30° C. to 250° C. A nitrogen purge at 10 ml min^−1 was maintained over the sample.

Row | D10 [1] [μm] | D50 [1] [μm] | D90 [1] [μm] | Hygroscopicity [3] | TGA mass loss [4] | Compound | plasma levels of metabolic substrates thought to be related to the development of the disease [2]
1 | 7 | 57 | 138 | – | – | CCCCN1C[C@H](O)[C@@H](O)[C@@H](O)[C@H]1CO [Example 2, (2R,3S,4R,5S)-1-butyl-2-(hydroxymethyl)piperidine-3,4,5-triol] | –
2 | – | – | – | Not hygroscopic | Mass loss of <0.1% in the range | CCCCN1C[C@H](O)[C@@H](O)[C@@H](O)[C@H]1CO [COMPOUND, (2R,3S,4R,5S)-1-butyl-2-(hydroxymethyl)piperidine-3,4,5-triol] | marked decrease
3 | 7 | 22 | 42 | – | – | CCCCN1C[C@H](O)[C@@H](O)[C@@H](O)[C@H]1CO [Reference Example 3, (2R,3S,4R,5S)-1-butyl-2-(hydroxymethyl)piperidine-3,4,5-triol] | –

Reference: patent US11713297B2, “Crystalline form of N-butyldeoxygalactonojirimycin” (IDORSIA PHARMACEUTICALS LTD, priority 2017, dated 2023)
